Results taken from patent publication US12303509B2, “Compounds for the treatment of BRAF-associated diseases and disorders” (Pfizer Inc., priority 2020, dated 2025).

Experiments:
A375 cells = test: Cellular phospho-ERK inhibition assay in A375 cells; format: cell-based; conditions: A375 cells (head prints A357), 2 hours treatment, read-out: A357 cell IC50
Procedure, shortened: (§1)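 A375 (DMEM) or H1755 (RPMI) cells in 10% FBS treated 2 h at 37 °C with 9-point series, 66 pM–10 μM, 0.25% DMSO. Phospho-ERK1/2 (Thr202/Tyr204) measured by In Cell Western, normalised to GAPDH and to DMSO and 10 μM binimetinib controls; IC50 by 4-parameter fit.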

H1755 cells = test: Cellular phospho-ERK inhibition assay in H1755 cells; format: cell-based; conditions: 2 hours treatment, read-out: H1755 Cell IC50
Procedure, shortened: as §1

[1] = test system: LLC-PK1 or MDCKII cell monolayer; test: MDR1 LLC-PK1 and BCRP MDCKII permeability assay: permeability coefficient (Papp); format: in vitro ADME; conditions: Papp, test concentration 1 μM, 2 hours incubation
From the text: Final organic concentration in the assay was 1%.

[2] = molecular target: full-length FLAG-tagged B-Raf(V600E) (Homo sapiens (Human), UniProt P15056, V600E); test: BRAF V600E enzyme assay (TR-FRET competitive displacement); format: binding; conditions: averaged IC50; TR-FRET tracer displacement, 60 min
Procedure, shortened: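 Displacement of 50 nM Tracer 1710 from 5 nM full-length N-terminally FLAG-tagged B-Raf(V600E), detected by TR-FRET with 0.5 nM Eu anti-FLAG antibody, in 25 mM HEPES pH 7.4, 10 mM MgCl2, 2% DMSO; 60 min at ~22 °C. Compounds 11-point, 3-fold from 10 μM; IC50 from 4-parameter fit at 50 POC.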

Chain of full-length FLAG-tagged B-Raf(V600E) (P15056 whole entry V600E): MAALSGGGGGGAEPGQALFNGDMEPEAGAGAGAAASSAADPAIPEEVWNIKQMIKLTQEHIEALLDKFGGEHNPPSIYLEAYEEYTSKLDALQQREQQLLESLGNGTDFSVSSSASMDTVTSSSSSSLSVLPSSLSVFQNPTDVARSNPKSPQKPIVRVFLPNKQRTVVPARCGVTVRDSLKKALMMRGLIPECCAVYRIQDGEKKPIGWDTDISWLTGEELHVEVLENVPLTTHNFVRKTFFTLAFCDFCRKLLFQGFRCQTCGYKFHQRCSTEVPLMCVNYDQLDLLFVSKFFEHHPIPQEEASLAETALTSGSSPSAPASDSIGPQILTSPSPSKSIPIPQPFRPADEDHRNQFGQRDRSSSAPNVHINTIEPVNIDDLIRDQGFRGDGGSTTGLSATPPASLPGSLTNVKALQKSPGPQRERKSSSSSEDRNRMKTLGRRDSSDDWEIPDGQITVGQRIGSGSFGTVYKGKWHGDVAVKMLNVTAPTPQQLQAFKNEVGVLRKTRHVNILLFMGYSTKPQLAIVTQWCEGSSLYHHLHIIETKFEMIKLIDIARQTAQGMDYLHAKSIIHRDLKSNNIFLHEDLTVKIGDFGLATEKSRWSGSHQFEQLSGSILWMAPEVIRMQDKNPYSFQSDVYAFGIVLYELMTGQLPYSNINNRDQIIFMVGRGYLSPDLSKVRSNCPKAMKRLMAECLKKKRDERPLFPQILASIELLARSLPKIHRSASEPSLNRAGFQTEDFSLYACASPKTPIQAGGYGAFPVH

IC50 (A375 cells) [nM] | IC50 (H1755 cells) [nM] | Permeability [1] | IC50 [2] [nM] | Compound
12 | 80 | 29 *10^−6 cm/s | 10 | CN(C)S(=O)(=O)Nc1ccc(F)c(Oc2ccc3ncn(C)c(=O)c3c2F)c1Cl [Example 111, N-(2-chloro-4-fluoro-3-((5-fluoro-3-methyl-4-oxo-3,4-dihydroquinazolin-6-yl)oxy)phenyl)-(N,N-dimethyl)-sulfamide]
24 | 105 | 28 *10^−6 cm/s | 20 | CCN(C)S(=O)(=O)Nc1ccc(F)c(Oc2ccc3ncn(C)c(=O)c3c2F)c1Cl [Example 112, N-(2-chloro-4-fluoro-3-((5-fluoro-3-methyl-4-oxo-3,4-dihydroquinazolin-6-yl)oxy)phenyl)-(N-ethyl-N-methyl)-sulfamide]
